Earlier results, collected in US20060069157A1, “Method of ameliorating or abrogating the effects of a neurodegenerative disorder, such as Huntington's disease, by sodium butyrate chemotherapy” (U.S. DEPARTMENT OF VETERANS AFFAIRS, priority 2004, published 2006).

How the values were obtained:
transgenic HD mice = details: cyclodextrin as a carrier; transgenic HD mice (Hockly et al., 2003); cited from earlier work
Drosophila model of HD = Drosophila model of HD (Steffan 2001); cited from earlier work

## O=C(CCCCCCC(=O)Nc1ccccc1)NO [SAHA, suberoylanilide hydroxamic acid]
Transgenic HD mice
  histone levels: increase histone levels
  motor performance: improve motor performance
Drosophila model of HD
  photoreceptor neuron degeneration and lethality: slow photoreceptor neuron degeneration and ameliorate lethality
